Measured values taken from patent publication US4871716A, “Magnetically responsive, hydrophilic microspheres for incorporation of therapeutic substances and methods of preparation thereof” (priority 1986, dated 1989).

Experiments:
[1] = test system: CD-1 mice; assay: Toxicity in CD-1 mice by i.p. injection; assay type: in vivo, CD-1 white female mice
Experimental: (§1) CD-1 white female mice, 5-7 weeks of age, weighing 30-33 g were injected by the intraperitoneal (i.p.) route with AD at concentrations of 0.6 mg and 1.5 mg dissolved in 0.5 ml of sterile saline. A second group of animals were injected with AD-PGA(15%)-HSA/MS-Q with 0.6, 1.5, and 2.5 mg of bound AD. For each concentration of the free and bound drug, 5 mice were used. PGA(15%)-HSA/MS-Q without AD was used for a control group and injected in equivalent weight amounts. Animals were then observed over a two-month period and fatalities were recorded for each group and tabulated.

[2] = Toxicity in CD-1 mice by i.p. injection; assay type: in vivo, CD-1 white female mice; settings: mouse, in vivo, ip, 0.6 mg; 600 μg free AD; read-out: animals killed
Experimental: as §1

COc1cccc2c1C(=O)c1c(O)c3c(c(O)c1C2=O)C[C@@](O)(C(=O)CO)C[C@@H]3O[C@H]1C[C@H](N)[C@H](O)[C@H](C)O1 [AD, Adriamycin]
Survival from Time of Administration ([1]; AD 0.6 mg i.p. (free or bound), 7 days): 5/5
Survival from Time of Administration ([1]; AD 0.6 mg i.p. (free or bound), 14 days): 1/5
Survival from Time of Administration ([1]; AD 0.6 mg i.p. (free or bound), 21 days): 1/5
Survival from Time of Administration ([1]; AD 0.6 mg i.p. (free or bound), 28 days): 1/5
Survival from Time of Administration ([1]; AD 0.6 mg i.p. (free or bound), 35 days): 1/5
Survival from Time of Administration ([1]; AD 1.5 mg i.p. (free or bound), 7 days): 5/5
Survival from Time of Administration ([1]; AD 1.5 mg i.p. (free or bound), 14 days): 0/5
ulcer development at site of injection ([1]; i.p.): All animals treated with free AD developed these ulcers
mortality at 1460 h [2]: > 80%
